# How the values were obtained:
# Experiment in all cases: radiometric filter-binding kinase assay
# [1] = system: PAK2 (human), Q13177 [T402E]
# MAP3K1 (human) = MAP3K1 (human) (UniProt Q13233)
# [2] = system: AKT2 (human), P31751 [S474D]
# MAPK13 (human) = MAPK13 (human) (UniProt O15264)
# EEF2K (human) = EEF2K (human) (UniProt O00418)
# SRC (human) = SRC (human) (UniProt P12931)
# SYK (human) = SYK (human) (UniProt P43405)
# FLT1 (human) = FLT1 (human) (UniProt P17948)
# PKN2 (human) = PKN2 (human) (UniProt Q16513)
# GCK (human) = GCK (human) (UniProt Q12851)
# Chain of GCK (human) (Q12851 whole entry, looked up): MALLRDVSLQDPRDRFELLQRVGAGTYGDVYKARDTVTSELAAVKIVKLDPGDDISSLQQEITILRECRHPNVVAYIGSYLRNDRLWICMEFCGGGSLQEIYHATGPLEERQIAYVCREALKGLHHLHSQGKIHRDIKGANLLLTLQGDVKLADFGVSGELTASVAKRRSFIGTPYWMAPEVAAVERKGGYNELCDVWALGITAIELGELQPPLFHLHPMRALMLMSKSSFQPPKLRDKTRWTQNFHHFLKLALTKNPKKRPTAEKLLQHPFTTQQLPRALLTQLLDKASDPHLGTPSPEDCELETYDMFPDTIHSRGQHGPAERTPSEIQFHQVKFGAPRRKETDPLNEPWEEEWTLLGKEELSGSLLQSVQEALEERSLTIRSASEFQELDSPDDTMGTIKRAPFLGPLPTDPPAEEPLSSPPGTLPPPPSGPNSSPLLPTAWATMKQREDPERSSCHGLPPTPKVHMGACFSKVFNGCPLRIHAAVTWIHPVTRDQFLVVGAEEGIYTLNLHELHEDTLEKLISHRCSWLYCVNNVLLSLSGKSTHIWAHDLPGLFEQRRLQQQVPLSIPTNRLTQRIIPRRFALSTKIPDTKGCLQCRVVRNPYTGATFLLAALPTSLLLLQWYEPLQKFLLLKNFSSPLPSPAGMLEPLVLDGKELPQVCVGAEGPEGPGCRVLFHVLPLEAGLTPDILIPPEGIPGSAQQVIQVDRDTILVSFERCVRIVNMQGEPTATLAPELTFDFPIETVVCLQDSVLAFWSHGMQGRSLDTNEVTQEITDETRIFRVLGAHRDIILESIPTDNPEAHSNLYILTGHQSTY
# GSK3B (human) = GSK3B (human) (UniProt P49841)
# PAK6 (human) = PAK6 (human) (UniProt Q9NQU5)
# EPHB4 (human) = EPHB4 (human) (UniProt P54760)
# MAP3K5 (human) = MAP3K5 (human) (UniProt Q99683)
# YES1 (human) = YES1 (human) (UniProt P07947)
# Chain of YES1 (human) (P07947 whole entry, looked up): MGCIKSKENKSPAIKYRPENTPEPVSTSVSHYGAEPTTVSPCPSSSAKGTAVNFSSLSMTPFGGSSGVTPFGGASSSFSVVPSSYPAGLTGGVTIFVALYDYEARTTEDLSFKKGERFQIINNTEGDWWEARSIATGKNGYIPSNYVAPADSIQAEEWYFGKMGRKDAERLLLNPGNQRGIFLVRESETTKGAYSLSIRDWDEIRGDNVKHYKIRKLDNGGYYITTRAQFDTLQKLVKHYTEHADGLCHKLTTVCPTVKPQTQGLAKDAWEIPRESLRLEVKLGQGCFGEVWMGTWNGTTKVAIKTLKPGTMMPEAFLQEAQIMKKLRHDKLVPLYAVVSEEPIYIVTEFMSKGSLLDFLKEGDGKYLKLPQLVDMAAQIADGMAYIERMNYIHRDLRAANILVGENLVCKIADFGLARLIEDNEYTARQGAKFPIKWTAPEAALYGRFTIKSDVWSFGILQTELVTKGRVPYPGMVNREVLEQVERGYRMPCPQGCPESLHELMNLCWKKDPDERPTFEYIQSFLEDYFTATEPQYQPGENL
# FGFR1 (human) = FGFR1 (human) (UniProt P11362)
# MELK (human) = MELK (human) (UniProt Q14680)
# CHEK1 (human) = CHEK1 (human) (UniProt O14757)
# MARK4 (human) = MARK4 (human) (UniProt Q96L34)
# MAPK10 (human) = MAPK10 (human) (UniProt P53779)
# IGF1R (human) = IGF1R (human) (UniProt P08069)
# PRKCZ (human) = PRKCZ (human) (UniProt Q05513)
# CSNK1D (human) = CSNK1D (human) (UniProt P48730)
# HIPK1 (human) = HIPK1 (human) (UniProt Q86Z02)
# EPHB1 (human) = EPHB1 (human) (UniProt P54762)
# TTK (human) = TTK (human) (UniProt P33981)
# Chain of TTK (human) (P33981 whole entry, looked up): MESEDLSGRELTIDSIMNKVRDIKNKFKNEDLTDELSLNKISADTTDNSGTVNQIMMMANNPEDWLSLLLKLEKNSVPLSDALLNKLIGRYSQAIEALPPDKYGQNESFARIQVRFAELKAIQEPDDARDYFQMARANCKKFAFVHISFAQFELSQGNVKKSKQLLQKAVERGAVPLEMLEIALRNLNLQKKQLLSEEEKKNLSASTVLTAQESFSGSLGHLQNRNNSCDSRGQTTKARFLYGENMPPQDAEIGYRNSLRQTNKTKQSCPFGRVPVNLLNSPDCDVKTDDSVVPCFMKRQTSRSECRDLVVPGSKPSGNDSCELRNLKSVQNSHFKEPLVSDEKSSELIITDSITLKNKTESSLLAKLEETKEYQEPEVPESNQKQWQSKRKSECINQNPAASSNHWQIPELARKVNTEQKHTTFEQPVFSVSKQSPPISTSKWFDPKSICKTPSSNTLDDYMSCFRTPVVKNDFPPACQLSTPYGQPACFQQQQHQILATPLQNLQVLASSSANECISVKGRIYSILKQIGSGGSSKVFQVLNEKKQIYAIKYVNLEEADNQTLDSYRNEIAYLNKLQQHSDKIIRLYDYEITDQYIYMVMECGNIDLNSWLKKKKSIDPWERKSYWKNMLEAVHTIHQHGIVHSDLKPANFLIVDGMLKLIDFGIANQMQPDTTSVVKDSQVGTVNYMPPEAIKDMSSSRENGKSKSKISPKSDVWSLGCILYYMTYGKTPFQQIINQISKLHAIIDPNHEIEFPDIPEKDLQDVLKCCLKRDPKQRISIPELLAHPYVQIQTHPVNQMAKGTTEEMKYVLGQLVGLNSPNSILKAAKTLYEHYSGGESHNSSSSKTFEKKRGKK
# MAP3K9 (human) = MAP3K9 (human) (UniProt P80192)
# Chain of MAP3K9 (human) (P80192 whole entry, looked up): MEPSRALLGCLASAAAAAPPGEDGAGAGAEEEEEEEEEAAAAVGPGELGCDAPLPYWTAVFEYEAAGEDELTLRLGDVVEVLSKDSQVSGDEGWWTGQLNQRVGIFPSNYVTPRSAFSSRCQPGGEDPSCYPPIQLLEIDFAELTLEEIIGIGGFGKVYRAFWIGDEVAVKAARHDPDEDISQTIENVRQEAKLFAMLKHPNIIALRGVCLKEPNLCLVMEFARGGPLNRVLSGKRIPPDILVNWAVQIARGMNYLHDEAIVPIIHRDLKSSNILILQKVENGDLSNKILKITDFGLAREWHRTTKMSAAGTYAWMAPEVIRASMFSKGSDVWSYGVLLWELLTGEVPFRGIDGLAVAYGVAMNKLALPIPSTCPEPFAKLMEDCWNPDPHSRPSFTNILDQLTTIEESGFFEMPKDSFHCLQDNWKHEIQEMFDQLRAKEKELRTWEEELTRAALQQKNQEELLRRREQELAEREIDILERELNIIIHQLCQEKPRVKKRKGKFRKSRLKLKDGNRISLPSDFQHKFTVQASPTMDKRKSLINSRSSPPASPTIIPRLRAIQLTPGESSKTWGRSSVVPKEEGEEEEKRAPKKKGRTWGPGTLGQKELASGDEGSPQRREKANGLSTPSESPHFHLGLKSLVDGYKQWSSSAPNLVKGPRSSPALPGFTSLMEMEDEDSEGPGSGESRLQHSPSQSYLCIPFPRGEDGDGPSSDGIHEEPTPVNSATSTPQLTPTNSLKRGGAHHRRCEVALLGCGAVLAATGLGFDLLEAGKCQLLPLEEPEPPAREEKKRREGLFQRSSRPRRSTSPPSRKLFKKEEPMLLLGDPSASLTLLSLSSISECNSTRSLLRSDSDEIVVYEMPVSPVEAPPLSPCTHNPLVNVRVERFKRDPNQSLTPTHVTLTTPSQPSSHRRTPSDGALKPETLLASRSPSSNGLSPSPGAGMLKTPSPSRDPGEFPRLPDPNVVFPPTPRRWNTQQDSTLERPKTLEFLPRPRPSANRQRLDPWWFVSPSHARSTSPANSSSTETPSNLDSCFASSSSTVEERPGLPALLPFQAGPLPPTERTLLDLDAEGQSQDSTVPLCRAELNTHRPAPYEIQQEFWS
# MYLK (human) = MYLK (human) (UniProt Q15746)
# MAPK9 (human) = MAPK9 (human) (UniProt P45984)
# Chain of MAPK9 (human) (P45984 whole entry, looked up): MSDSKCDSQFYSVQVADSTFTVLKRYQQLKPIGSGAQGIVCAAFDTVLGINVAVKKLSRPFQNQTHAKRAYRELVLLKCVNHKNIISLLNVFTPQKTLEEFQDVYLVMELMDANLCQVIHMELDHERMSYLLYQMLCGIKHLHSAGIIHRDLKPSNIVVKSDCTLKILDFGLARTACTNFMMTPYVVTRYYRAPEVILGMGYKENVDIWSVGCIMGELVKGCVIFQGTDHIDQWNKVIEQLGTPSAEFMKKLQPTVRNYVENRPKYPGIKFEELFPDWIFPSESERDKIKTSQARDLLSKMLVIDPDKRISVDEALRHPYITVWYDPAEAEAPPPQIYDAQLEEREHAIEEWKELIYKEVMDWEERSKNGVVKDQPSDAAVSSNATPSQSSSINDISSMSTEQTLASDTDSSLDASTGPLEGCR
# [3] = molecular target: STK11 CAB39 STRADA (human) (UniProt Q9Y376+Q7RTN6+Q15831)
# HIPK2 (human) = HIPK2 (human) (UniProt Q9H2X6)
# AURKA (human) = AURKA (human) (UniProt O14965)
# MAPK1 (human) = MAPK1 (human) (UniProt P28482)
# Chain of MAPK1 (human) (P28482 whole entry, looked up): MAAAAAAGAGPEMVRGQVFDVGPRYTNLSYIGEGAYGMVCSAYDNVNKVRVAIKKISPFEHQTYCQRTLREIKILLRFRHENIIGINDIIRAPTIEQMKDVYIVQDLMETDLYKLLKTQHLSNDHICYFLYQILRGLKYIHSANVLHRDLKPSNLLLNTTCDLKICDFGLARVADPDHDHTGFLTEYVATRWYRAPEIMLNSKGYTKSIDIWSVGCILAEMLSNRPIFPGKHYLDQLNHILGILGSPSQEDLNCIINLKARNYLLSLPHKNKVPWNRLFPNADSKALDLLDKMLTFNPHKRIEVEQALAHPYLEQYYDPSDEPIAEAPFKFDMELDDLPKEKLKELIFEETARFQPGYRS
# AURKB (human) = AURKB (human) (UniProt Q96GD4)
# MAP2K2 (human) = MAP2K2 (human) (UniProt P36507); conditions: compound 0.1 µM
# TAOK1 (human) = TAOK1 (human) (UniProt Q7L7X3)
# Chain of MAPK13 (human) (O15264 whole entry, looked up): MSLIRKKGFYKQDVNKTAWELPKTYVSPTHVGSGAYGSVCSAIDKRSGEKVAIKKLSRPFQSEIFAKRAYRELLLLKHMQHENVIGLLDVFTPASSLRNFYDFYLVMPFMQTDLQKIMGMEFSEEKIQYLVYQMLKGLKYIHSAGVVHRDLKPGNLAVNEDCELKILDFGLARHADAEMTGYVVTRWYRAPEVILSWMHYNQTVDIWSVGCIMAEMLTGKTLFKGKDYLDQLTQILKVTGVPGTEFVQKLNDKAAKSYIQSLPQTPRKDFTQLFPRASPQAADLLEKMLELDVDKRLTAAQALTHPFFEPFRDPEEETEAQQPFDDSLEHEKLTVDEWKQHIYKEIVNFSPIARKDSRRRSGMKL
# Chain of PAK2 (human), Q13177 [T402E] (Q13177 whole entry T402E, looked up): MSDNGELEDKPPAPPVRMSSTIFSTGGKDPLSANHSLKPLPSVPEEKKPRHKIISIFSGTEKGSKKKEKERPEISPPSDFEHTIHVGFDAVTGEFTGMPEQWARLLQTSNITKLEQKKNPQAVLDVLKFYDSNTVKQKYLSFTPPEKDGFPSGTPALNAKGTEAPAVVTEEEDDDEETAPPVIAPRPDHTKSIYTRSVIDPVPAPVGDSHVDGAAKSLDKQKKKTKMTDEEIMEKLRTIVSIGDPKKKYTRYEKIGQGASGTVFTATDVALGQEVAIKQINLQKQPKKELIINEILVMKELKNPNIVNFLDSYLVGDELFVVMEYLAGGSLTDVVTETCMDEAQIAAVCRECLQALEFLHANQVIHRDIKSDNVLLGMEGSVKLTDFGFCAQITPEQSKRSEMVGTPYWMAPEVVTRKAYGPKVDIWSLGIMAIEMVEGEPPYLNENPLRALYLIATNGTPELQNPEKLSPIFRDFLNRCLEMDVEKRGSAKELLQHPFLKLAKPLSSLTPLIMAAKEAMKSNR
structure (smiles),measurement,setting,value
CCn1c(-c2nonc2N)nc2cncc(CNC3CCNCC3)c21,residual activity,[1]; compound 0.1 µM,99%
same,residual activity,[1]; compound 1.0 µM,93%
same,residual activity,[1]; compound 10.0 µM,90%
same,residual activity,MAP3K1 (human); compound 0.1 µM,94%
same,residual activity,MAP3K1 (human); compound 1.0 µM,93%
same,residual activity,MAP3K1 (human); compound 10.0 µM,112%
same,residual activity,[2]; compound 0.1 µM,101%
same,residual activity,[2]; compound 1.0 µM,59%
same,residual activity,[2]; compound 10.0 µM,38%
same,residual activity,MAPK13 (human); compound 0.1 µM,100%
same,residual activity,MAPK13 (human); compound 1.0 µM,99%
same,residual activity,MAPK13 (human); compound 10.0 µM,88%
same,residual activity,EEF2K (human); compound 0.1 µM,118%
same,residual activity,EEF2K (human); compound 10.0 µM,117%
same,residual activity,SRC (human); compound 0.1 µM,110%
same,residual activity,SRC (human); compound 1.0 µM,120%
same,residual activity,SRC (human); compound 10.0 µM,102%
same,residual activity,SYK (human); compound 0.1 µM,106%
same,residual activity,SYK (human); compound 1.0 µM,101%
same,residual activity,SYK (human); compound 10.0 µM,79%
same,residual activity,FLT1 (human); compound 0.1 µM,103%
same,residual activity,FLT1 (human); compound 1.0 µM,105%
same,residual activity,FLT1 (human); compound 10.0 µM,83%
same,residual activity,PKN2 (human); compound 0.1 µM,31%
same,residual activity,PKN2 (human); compound 1.0 µM,12%
same,residual activity,PKN2 (human); compound 10.0 µM,7%
same,residual activity,GCK (human); compound 0.1 µM,91%
same,residual activity,GCK (human); compound 1.0 µM,94%
same,residual activity,GCK (human); compound 10.0 µM,71%
same,residual activity,GSK3B (human); compound 0.1 µM,87%
same,residual activity,GSK3B (human); compound 1.0 µM,66%
same,residual activity,GSK3B (human); compound 10.0 µM,25%
same,residual activity,PAK6 (human); compound 0.1 µM,103%
same,residual activity,PAK6 (human); compound 1.0 µM,94%
same,residual activity,PAK6 (human); compound 10.0 µM,93%
same,residual activity,EPHB4 (human); compound 0.1 µM,105%
same,residual activity,EPHB4 (human); compound 1.0 µM,105%
same,residual activity,EPHB4 (human); compound 10.0 µM,94%
same,residual activity,MAP3K5 (human); compound 0.1 µM,100%
same,residual activity,MAP3K5 (human); compound 1.0 µM,97%
same,residual activity,MAP3K5 (human); compound 10.0 µM,97%
same,residual activity,YES1 (human); compound 0.1 µM,108%
same,residual activity,YES1 (human); compound 1.0 µM,98%
same,residual activity,YES1 (human); compound 10.0 µM,86%
same,residual activity,FGFR1 (human); compound 0.1 µM,101%
same,residual activity,FGFR1 (human); compound 1.0 µM,115%
same,residual activity,FGFR1 (human); compound 10.0 µM,121%
same,residual activity,MELK (human); compound 0.1 µM,71%
same,residual activity,MELK (human); compound 1.0 µM,40%
same,residual activity,MELK (human); compound 10.0 µM,26%
same,residual activity,CHEK1 (human); compound 0.1 µM,89%
same,residual activity,CHEK1 (human); compound 1.0 µM,88%
same,residual activity,CHEK1 (human); compound 10.0 µM,53%
same,residual activity,MARK4 (human); compound 0.1 µM,91%
same,residual activity,MARK4 (human); compound 1.0 µM,103%
same,residual activity,MARK4 (human); compound 10.0 µM,81%
same,residual activity,MAPK10 (human); compound 0.1 µM,97%
same,residual activity,MAPK10 (human); compound 10.0 µM,95%
same,residual activity,IGF1R (human); compound 0.1 µM,96%
same,residual activity,IGF1R (human); compound 1.0 µM,107%
same,residual activity,IGF1R (human); compound 10.0 µM,105%
same,residual activity,PRKCZ (human); compound 0.1 µM,94%
same,residual activity,PRKCZ (human); compound 1.0 µM,71%
same,residual activity,PRKCZ (human); compound 10.0 µM,25%
same,residual activity,CSNK1D (human); compound 0.1 µM,102%
same,residual activity,CSNK1D (human); compound 1.0 µM,91%
same,residual activity,CSNK1D (human); compound 10.0 µM,61%
same,residual activity,HIPK1 (human); compound 0.1 µM,107%
same,residual activity,HIPK1 (human); compound 1.0 µM,107%
same,residual activity,HIPK1 (human); compound 10.0 µM,84%
same,residual activity,EPHB1 (human); compound 0.1 µM,92%
same,residual activity,EPHB1 (human); compound 1.0 µM,99%
same,residual activity,EPHB1 (human); compound 10.0 µM,82%
same,residual activity,TTK (human); compound 0.1 µM,83%
same,residual activity,TTK (human); compound 1.0 µM,84%
same,residual activity,TTK (human); compound 10.0 µM,65%
same,residual activity,MAP3K9 (human); compound 0.1 µM,105%
same,residual activity,MAP3K9 (human); compound 1.0 µM,104%
same,residual activity,MAP3K9 (human); compound 10.0 µM,99%
same,residual activity,MYLK (human); compound 0.1 µM,104%
same,residual activity,MYLK (human); compound 1.0 µM,110%
same,residual activity,MYLK (human); compound 10.0 µM,70%
same,residual activity,MAPK9 (human); compound 0.1 µM,109%
same,residual activity,MAPK9 (human); compound 1.0 µM,103%
same,residual activity,MAPK9 (human); compound 10.0 µM,95%
same,residual activity,[3]; compound 0.1 µM,108%
same,residual activity,[3]; compound 10.0 µM,57%
same,residual activity,HIPK2 (human); compound 0.1 µM,112%
same,residual activity,HIPK2 (human); compound 1.0 µM,82%
same,residual activity,HIPK2 (human); compound 10.0 µM,43%
same,residual activity,AURKA (human); compound 0.1 µM,91%
same,residual activity,AURKA (human); compound 1.0 µM,95%
same,residual activity,AURKA (human); compound 10.0 µM,103%
same,residual activity,MAPK1 (human); compound 0.1 µM,113%
same,residual activity,MAPK1 (human); compound 1.0 µM,117%
same,residual activity,MAPK1 (human); compound 10.0 µM,115%
same,residual activity,AURKB (human); compound 0.1 µM,85%
same,residual activity,AURKB (human); compound 1.0 µM,76%
same,residual activity,AURKB (human); compound 10.0 µM,71%
same,residual activity,MAP2K2 (human),98%
same,residual activity,TAOK1 (human); compound 0.1 µM,100%
same,residual activity,TAOK1 (human); compound 1.0 µM,108%
same,residual activity,TAOK1 (human); compound 10.0 µM,104%

# — the kinase profiling compilation of Christmann-Franck et al. (2016)
